Laboratory results taken from the Kinase Knowledgebase extract (Sharma et al. 2016).
Blank lines part the entries; values can stand above or below the molecule they belong to.

Assays:
[1] = molecular target: EGFR (UniProt P00533); settings: concentration not given here
[2] = molecular target: ROCK2 (UniProt O75116); experiment: Inhibition of ROCK2 Kinase Activity; settings: for inhibition: concentration not given here
[3] = molecular target: MAPK14 (UniProt Q16539); experiment: Inhibition of MAPK14 Kinase Activity; settings: concentration not given here
MAPK14, sequence (Q16539 whole entry, looked up): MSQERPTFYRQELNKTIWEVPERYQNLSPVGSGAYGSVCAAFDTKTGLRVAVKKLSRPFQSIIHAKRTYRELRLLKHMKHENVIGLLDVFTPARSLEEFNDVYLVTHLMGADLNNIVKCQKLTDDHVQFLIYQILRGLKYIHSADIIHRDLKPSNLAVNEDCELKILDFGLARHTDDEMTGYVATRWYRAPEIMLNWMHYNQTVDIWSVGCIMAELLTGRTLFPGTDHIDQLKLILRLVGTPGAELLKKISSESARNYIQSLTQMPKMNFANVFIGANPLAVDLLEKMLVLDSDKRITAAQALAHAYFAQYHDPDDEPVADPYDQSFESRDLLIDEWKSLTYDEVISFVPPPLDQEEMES

[4] = molecular target: CDK2 (UniProt P24941); experiment: Enzyme Assay; settings: for inhibition: concentration not given here

ROCK2, sequence (O75116 whole entry, looked up): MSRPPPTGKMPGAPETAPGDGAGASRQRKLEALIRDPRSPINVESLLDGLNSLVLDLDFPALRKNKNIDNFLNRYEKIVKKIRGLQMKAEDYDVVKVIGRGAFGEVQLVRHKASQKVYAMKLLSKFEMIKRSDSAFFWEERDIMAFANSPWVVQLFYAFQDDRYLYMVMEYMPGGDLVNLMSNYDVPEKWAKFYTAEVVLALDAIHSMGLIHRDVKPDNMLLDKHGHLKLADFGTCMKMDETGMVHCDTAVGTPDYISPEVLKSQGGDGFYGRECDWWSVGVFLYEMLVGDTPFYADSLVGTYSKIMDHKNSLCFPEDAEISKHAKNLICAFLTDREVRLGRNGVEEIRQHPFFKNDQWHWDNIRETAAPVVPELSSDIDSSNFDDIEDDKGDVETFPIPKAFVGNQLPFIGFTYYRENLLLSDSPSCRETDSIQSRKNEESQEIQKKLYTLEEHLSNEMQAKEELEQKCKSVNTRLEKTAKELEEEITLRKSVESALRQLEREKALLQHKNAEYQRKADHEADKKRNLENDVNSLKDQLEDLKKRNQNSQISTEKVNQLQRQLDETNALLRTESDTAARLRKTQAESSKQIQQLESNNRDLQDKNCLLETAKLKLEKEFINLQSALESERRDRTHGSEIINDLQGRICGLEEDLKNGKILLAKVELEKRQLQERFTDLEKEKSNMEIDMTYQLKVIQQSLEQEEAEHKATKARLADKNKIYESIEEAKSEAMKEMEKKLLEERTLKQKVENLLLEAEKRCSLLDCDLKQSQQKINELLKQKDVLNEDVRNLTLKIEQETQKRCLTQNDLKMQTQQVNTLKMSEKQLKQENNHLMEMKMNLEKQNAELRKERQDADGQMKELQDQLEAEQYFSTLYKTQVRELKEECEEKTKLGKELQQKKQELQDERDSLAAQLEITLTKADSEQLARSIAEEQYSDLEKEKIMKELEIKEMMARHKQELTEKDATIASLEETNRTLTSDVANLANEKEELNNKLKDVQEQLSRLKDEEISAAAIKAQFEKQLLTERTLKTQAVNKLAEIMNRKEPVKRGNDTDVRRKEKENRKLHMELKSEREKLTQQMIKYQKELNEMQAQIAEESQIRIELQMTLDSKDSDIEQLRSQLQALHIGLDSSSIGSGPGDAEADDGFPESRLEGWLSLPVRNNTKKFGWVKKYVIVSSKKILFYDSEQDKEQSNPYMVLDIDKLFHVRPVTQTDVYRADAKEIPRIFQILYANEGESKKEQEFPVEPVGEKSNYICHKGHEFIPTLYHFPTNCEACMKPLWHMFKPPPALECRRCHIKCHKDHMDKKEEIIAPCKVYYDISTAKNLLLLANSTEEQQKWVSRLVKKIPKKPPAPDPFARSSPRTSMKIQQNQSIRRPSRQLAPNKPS
EGFR, sequence (P00533 whole entry, looked up): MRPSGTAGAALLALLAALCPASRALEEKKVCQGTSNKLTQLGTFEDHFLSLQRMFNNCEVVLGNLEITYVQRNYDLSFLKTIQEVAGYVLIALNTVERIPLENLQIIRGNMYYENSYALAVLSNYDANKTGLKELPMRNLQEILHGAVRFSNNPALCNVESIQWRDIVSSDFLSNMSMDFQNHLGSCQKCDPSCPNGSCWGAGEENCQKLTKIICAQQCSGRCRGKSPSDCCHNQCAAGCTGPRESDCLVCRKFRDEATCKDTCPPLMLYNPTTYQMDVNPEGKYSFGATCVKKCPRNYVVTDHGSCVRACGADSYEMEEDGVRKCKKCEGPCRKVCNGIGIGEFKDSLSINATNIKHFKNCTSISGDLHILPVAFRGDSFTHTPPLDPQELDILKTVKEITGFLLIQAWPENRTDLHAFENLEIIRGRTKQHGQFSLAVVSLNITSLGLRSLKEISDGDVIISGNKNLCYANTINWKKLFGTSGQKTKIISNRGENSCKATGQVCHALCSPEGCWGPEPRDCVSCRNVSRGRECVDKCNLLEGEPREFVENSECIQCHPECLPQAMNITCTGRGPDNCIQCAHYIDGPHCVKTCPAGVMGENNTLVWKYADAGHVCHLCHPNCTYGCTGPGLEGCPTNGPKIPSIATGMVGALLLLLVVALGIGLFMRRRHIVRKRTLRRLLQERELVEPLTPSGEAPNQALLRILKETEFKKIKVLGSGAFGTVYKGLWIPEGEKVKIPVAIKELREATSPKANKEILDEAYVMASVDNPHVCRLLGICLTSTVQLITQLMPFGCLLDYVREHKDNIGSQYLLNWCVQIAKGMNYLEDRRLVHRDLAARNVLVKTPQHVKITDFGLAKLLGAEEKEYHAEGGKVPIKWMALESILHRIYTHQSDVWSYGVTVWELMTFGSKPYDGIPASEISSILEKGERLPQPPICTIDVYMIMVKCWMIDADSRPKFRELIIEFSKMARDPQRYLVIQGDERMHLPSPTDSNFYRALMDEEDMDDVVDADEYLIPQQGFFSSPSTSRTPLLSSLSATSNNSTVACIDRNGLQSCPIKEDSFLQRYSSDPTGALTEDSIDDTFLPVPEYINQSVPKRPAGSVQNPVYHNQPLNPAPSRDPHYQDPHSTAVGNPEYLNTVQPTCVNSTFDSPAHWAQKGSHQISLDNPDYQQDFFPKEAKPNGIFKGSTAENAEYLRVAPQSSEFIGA

SMILES: O=C(Nc1cncc(-c2cccc(O)c2)c1)c1cccc(O)c1
- inhibition [1]: > 90%

SMILES: Oc1ccc(-c2cncc(NCc3ccc(F)c(F)c3)c2)cc1
- inhibition [2]: 50 to 90%

SMILES: Oc1cccc(CNc2cncc(-c3ccc(N4CCOCC4)cc3)c2)c1
- inhibition [1]: 50 to 90%

SMILES: CC(=O)Nc1cccc(-c2cncc(Nc3ccc(F)cc3)c2)c1
- inhibition [1]: 50 to 90%

SMILES: Cc1ccc(CNc2cncc(-c3cccc(O)c3)c2)cc1O
- inhibition [2]: 50 to 90%
- inhibition [1]: 50 to 90%

SMILES: COc1ccc(-c2cncc(NCc3cccc(O)c3)c2)cc1OC
- inhibition [1]: 50 to 90%

SMILES: CN(Cc1cccc(O)c1)c1cncc(-c2cccc(O)c2)c1
- inhibition [2]: 50 to 90%

SMILES: CS(=O)(=O)Nc1cccc(-c2cncc(NCc3cccc(O)c3)c2)c1
- inhibition [1]: 50 to 90%

SMILES: COc1cccc(-c2cncc(NCc3cccc(O)c3)c2)c1F
- inhibition [1]: 50 to 90%

SMILES: Oc1ccc(-c2cncc(NCc3ccc4c(c3)OCO4)c2)cc1
- inhibition [2]: 50 to 90%

SMILES: CC(=O)Nc1cccc(-c2cncc(Nc3ccccc3F)c2)c1
- inhibition [1]: 50 to 90%

SMILES: CN(C)CCNC(=O)c1cccc(-c2cncc(NCc3cccc(O)c3)c2)c1
- inhibition [1]: 50 to 90%

Further lines, results first:

- inhibition [1]: 50 to 90%
SMILES: O=C(O)c1cccc(-c2cncc(NCc3cccc(O)c3)c2)c1

- inhibition [1]: 50 to 90%
SMILES: OCc1cccc(-c2cncc(NCc3cccc(O)c3)c2)c1

- inhibition [3]: 50 to 90%
- inhibition [1]: 50 to 90%
SMILES: CC(=O)Nc1cccc(-c2cncc(NCc3cccc(O)c3)c2)c1

- IC50 [2]: < 1000 nM
- inhibition [1]: 50 to 90%
SMILES: NC(=O)c1cccc(-c2cncc(NCc3cccc(O)c3)c2)c1

- inhibition [1]: 50 to 90%
SMILES: O=C(NCCO)c1cccc(-c2cncc(NCc3cccc(O)c3)c2)c1

- inhibition [4]: > 90%
- inhibition [2]: 50 to 90%
SMILES: Oc1cccc(CNc2cncc(Cc3cccc(O)c3)c2)c1

- inhibition [1]: 50 to 90%
SMILES: Oc1cccc(CNc2cncc(-c3cccnc3)c2)c1

- inhibition [4]: > 90%
- IC50 [2]: < 1000 nM
- inhibition [1]: 50 to 90%
SMILES: Oc1ccc(-c2cncc(NCc3cccc(O)c3)c2)cc1

- inhibition [1]: 50 to 90%
SMILES: Oc1cccc(CNc2cncc(-c3cccc(O)c3F)c2)c1

- inhibition [1]: 50 to 90%
SMILES: Nc1cccc(-c2cncc(NCc3cccc(O)c3)c2)c1

- inhibition [4]: > 90%
- inhibition [2]: 50 to 90%
SMILES: COC(=O)c1cccc(-c2cncc(NCc3cccc(O)c3)c2)c1

- IC50 [4]: < 1000 nM
- inhibition [2]: 50 to 90%
- inhibition [1]: 50 to 90%
SMILES: COc1cccc(-c2cncc(NCc3cccc(O)c3)c2)c1

- inhibition [1]: 50 to 90%
SMILES: Oc1cccc(CNc2cncc(-c3ccccc3)c2)c1

- inhibition [2]: 50 to 90%
- inhibition [1]: 50 to 90%
SMILES: Oc1cccc(CNc2cncc(-c3cccc(O)c3)c2)c1

- inhibition [1]: 50 to 90%
SMILES: COC(=O)c1cccc(CNc2cncc(-c3cccc(O)c3)c2)c1

- inhibition [1]: > 90%
SMILES: Oc1cccc(CCNc2cncc(-c3cccc(O)c3)c2)c1

- inhibition [2]: 50 to 90%
- inhibition [1]: 50 to 90%
SMILES: OCc1ccc(-c2cncc(NCc3cccc(O)c3)c2)cc1
